pKi: −log10 of the molar value. Where two headings read alike, the source gives them in different places.
How the values were obtained:
[1] = test system: normal NMRI mice; assay: Effect on acute food intake in normal NMRI mice; assay type: in vivo; conditions: male NMRI mice, 10 nmol/kg subcutaneously once
Summary of the method: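 Male NMRI mice acclimatized in an HM-2 real-time food intake monitoring system, fasted 6 h before dark phase. Single subcutaneous dose of 10 nmol/kg peptide given 1 h before dark; n=7-8. Food intake expressed as % of vehicle group (50 mM phosphate pH7, 5% Mannitol).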

[2] = target: T1, Human Neuropeptide Y2 Receptor (Homo sapiens, UniProt P49146); assay: Radioligand binding competition assay (RLB); conditions: read-out: Ki
T1 construct: purchased CHEMICON HTS066M
T1 sequence (P49146 1-381): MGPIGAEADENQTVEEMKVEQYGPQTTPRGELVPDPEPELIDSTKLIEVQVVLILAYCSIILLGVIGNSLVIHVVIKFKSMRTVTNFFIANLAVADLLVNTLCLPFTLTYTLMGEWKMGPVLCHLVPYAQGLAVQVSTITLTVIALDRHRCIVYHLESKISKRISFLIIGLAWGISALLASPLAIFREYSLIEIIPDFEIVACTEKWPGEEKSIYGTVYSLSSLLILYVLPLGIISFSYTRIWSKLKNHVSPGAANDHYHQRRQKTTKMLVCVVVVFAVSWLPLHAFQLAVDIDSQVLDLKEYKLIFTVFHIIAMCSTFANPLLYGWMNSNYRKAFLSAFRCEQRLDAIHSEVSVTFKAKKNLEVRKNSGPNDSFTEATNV
Summary of the method: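 Competition binding on human Y2 receptor membranes, 0.5 μg protein/well, in 50 mM HEPES, 5 mM MgCl2, 1 mM CaCl2, pH 7.4, 0.2% ovalbumin; peptides diluted from 1 mM DMSO stocks.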

[3] = Table 3, human 125I-PYY (1-36) 0.02 nM, Y2 receptor membranes

Structure (SMILES)	pKi [2, 3]	Acute Food Intake 24 h [% vehicle] [1] [% vehicle]	pKi [2]
CC(C)CC(=O)N[C@@H](C)C(=O)N1CCC[C@H]1C(=O)N[C@@H](CCC(=O)O)C(=O)N[C@@H](CCCCNC(=O)COCCOCCNC(=O)COCCOCCNC(=O)CC[C@H](NC(=O)CCCCCCCCCCCCCCCCC(=O)O)C(=O)O)C(=O)N1CCC[C@H]1C(=O)N[C@@H](CCC(=O)O)C(=O)N[C@@H](C)C(=O)N[C@@H](CC(=O)O)C(=O)N[C@@H](C)C(=O)N[C@@H](CCC(=O)O)C(=O)N1CCC[C@H]1C(=O)N[C@@H](CCC(=O)O)C(=O)N[C@@H](CCC(=O)O)C(=O)N[C@@H](CC(C)C)C(=O)N[C@@H](CCC(N)=O)C(=O)N[C@@H](CCCNC(=N)N)C(=O)N[C@@H](Cc1ccc(O)cc1)C(=O)N[C@@H](Cc1ccc(O)cc1)C(=O)N[C@H](C(=O)N[C@@H](CO)C(=O)N[C@@H](CC(C)C)C(=O)N[C@@H](CCCNC(=N)N)C(=O)N[C@@H](Cc1c[nH]cn1)C(=O)N[C@@H](Cc1ccc(O)cc1)C(=O)N[C@@H](Cc1ccc(O)cc1)C(=O)N[C@@H](CC(N)=O)C(=O)N[C@@H](Cc1c[nH]c2ccccc12)C(=O)N[C@@H](CC(C)C)C(=O)N[C@H](C(=O)N[C@@H](CCCNC(=N)N)C(=O)N[C@@H](CCC(N)=O)C(=O)N[C@@H](CCCNC(=N)N)C(=O)N[C@@H](Cc1ccc(O)cc1)C(N)=O)[C@@H](C)O)C(C)C [Compound 56, N{alpha-4}-(3-methylbutanoyl)-N{epsilon-7}-[2-(2-{2-[2-(2-{2-[(4S)-4-carboxy-4-(17-carboxyheptadecanamido)butanamido]ethoxy}ethoxy)acetamido]ethoxy}ethoxy)acetamido]-[4A,7K,9E,10A,13E,18Q,22V,28Y,30W,31L]hPYY (4-36)]	8.90	53	–
CC(C)CC(=O)N[C@@H](C)C(=O)N1CCC[C@H]1C(=O)N[C@@H](CCC(=O)O)C(=O)N[C@@H](CCCCNC(=O)COCCOCCNC(=O)COCCOCCNC(=O)CC[C@H](NC(=O)CCCCCCCCCCCCCCCCC(=O)O)C(=O)O)C(=O)N1CCC[C@H]1C(=O)N[C@@H](CCC(=O)O)C(=O)N[C@@H](CCC(=O)O)C(=O)N[C@@H](CCC(=O)O)C(=O)N[C@@H](C)C(=O)N[C@@H](CO)C(=O)N[C@@H](CCC(=O)O)C(=O)N[C@@H](CCC(=O)O)C(=O)N[C@@H](CCC(=O)O)C(=O)N[C@@H](CC(C)C)C(=O)N[C@@H](CCC(N)=O)C(=O)N[C@@H](CCCNC(=N)N)C(=O)N[C@@H](Cc1ccc(O)cc1)C(=O)N[C@@H](Cc1ccc(O)cc1)C(=O)N[C@H](C(=O)N[C@@H](CO)C(=O)N[C@@H](CC(C)C)C(=O)N[C@@H](CCCNC(=N)N)C(=O)N[C@@H](Cc1c[nH]cn1)C(=O)N[C@@H](Cc1ccc(O)cc1)C(=O)N[C@@H](Cc1ccc(O)cc1)C(=O)N[C@@H](CC(N)=O)C(=O)N[C@@H](Cc1c[nH]c2ccccc12)C(=O)N[C@@H](CC(C)C)C(=O)N[C@H](C(=O)N[C@@H](CCCNC(=N)N)C(=O)N[C@@H](CCC(N)=O)C(=O)N[C@@H](CCCNC(=N)N)C(=O)N[C@@H](Cc1ccc(O)cc1)C(N)=O)[C@@H](C)O)C(C)C [Compound 79, N{alpha-4}-(3-methylbutanoyl)-N{epsilon-7}-[2-(2-{2-[2-(2-{2-[(4S)-4-carboxy-4-(17-carboxyheptadecanamido)butanamido]ethoxy}ethoxy)acetamido]ethoxy}ethoxy)acetamido]-[4A,7K,9E,11E,14E,18Q,22V,28Y,30W,31L]hPYY (4-36)]	–	75	8.34

The remaining compounds from weak to strong by pKi [2, 3], led by results:

pKi [2, 3]	Structure (SMILES)	Acute Food Intake 24 h [% vehicle] [1] [% vehicle]	pKi [2]
8.48	CC(C)CC(=O)N[C@@H](C)C(=O)N1CCC[C@H]1C(=O)N[C@@H](CCC(=O)O)C(=O)N[C@@H](CCCCNC(=O)COCCOCCNC(=O)COCCOCCNC(=O)CC[C@H](NC(=O)CCCCCCCCCCCCCCCCC(=O)O)C(=O)O)C(=O)N1CCC[C@H]1C(=O)N[C@@H](CCC(=O)O)C(=O)N[C@@H](CCC(=O)O)C(=O)N[C@@H](CC(=O)O)C(=O)N[C@@H](C)C(=O)N[C@H](C(=O)N1CCC[C@H]1C(=O)N[C@@H](CCC(=O)O)C(=O)N[C@@H](CCC(=O)O)C(=O)N[C@@H](CC(C)C)C(=O)N[C@@H](CCC(N)=O)C(=O)N[C@@H](CCCNC(=N)N)C(=O)N[C@@H](Cc1ccc(O)cc1)C(=O)N[C@@H](Cc1ccc(O)cc1)C(=O)N[C@H](C(=O)N[C@@H](CCC(=O)O)C(=O)N[C@@H](CC(C)C)C(=O)N[C@@H](CCCNC(=N)N)C(=O)N[C@@H](Cc1c[nH]cn1)C(=O)N[C@@H](Cc1ccc(O)cc1)C(=O)N[C@@H](Cc1ccc(O)cc1)C(=O)N[C@@H](CC(N)=O)C(=O)N[C@@H](Cc1c[nH]c2ccccc12)C(=O)N[C@@H](CC(C)C)C(=O)N[C@H](C(=O)N[C@@H](CCCNC(=N)N)C(=O)N[C@@H](CCC(N)=O)C(=O)N[C@@H](CCCNC(=N)N)C(=O)N[C@@H](Cc1ccc(O)cc1)C(N)=O)[C@@H](C)O)C(C)C)[C@@H](C)O [Compound 101, N{alpha-4}-(3-methylbutanoyl)-N{epsilon-7}-[2-(2-{2-[2-(2-{2-[(4S)-4-carboxy-4-(17-carboxyheptadecanamido)butanamido]ethoxy}ethoxy)acetamido]ethoxy}ethoxy)acetamido]-[4A,7K,9E,13T,18Q,22V,23E,28Y,30W,31L]hPYY (4-36)]	63	–
8.80	CC(C)CC(=O)N[C@@H](C)C(=O)N1CCC[C@H]1C(=O)N[C@@H](CCC(=O)O)C(=O)N[C@@H](CCCCNC(=O)COCCOCCNC(=O)COCCOCCNC(=O)CC[C@H](NC(=O)CCCCCCCCCCCCCCCCC(=O)O)C(=O)O)C(=O)N1CCC[C@H]1C(=O)N[C@@H](CCC(=O)O)C(=O)N[C@@H](CCC(=O)O)C(=O)N[C@@H](CC(=O)O)C(=O)N[C@@H](C)C(=O)N[C@@H](CO)C(=O)N1CCC[C@H]1C(=O)N[C@@H](CCC(=O)O)C(=O)N[C@@H](CCC(=O)O)C(=O)N[C@@H](CC(C)C)C(=O)N[C@@H](CCC(N)=O)C(=O)N[C@@H](CCCNC(=N)N)C(=O)N[C@@H](Cc1ccc(O)cc1)C(=O)N[C@@H](CCC(=O)O)C(=O)N[C@H](C(=O)N[C@@H](CO)C(=O)N[C@@H](CC(C)C)C(=O)N[C@@H](CCCNC(=N)N)C(=O)N[C@@H](Cc1c[nH]cn1)C(=O)N[C@@H](Cc1ccc(O)cc1)C(=O)N[C@@H](Cc1ccc(O)cc1)C(=O)N[C@@H](CC(N)=O)C(=O)N[C@@H](Cc1c[nH]c2ccccc12)C(=O)N[C@@H](CC(C)C)C(=O)N[C@H](C(=O)N[C@@H](CCCNC(=N)N)C(=O)N[C@@H](CCC(N)=O)C(=O)N[C@@H](CCCNC(=N)N)C(=O)N[C@@H](Cc1ccc(O)cc1)C(N)=O)[C@@H](C)O)C(C)C [Compound 90, N{alpha-4}-(3-methylbutanoyl)-N{epsilon-7}-[2-(2-{2-[2-(2-{2-[(4S)-4-carboxy-4-(17-carboxyheptadecanamido)butanamido]ethoxy}ethoxy)acetamido]ethoxy}ethoxy)acetamido]-[4A,7K,9E,18Q,21E,22V,28Y,30W,31L]hPYY (4-36)]	70	–
9.02	CC(C)CC(=O)N[C@@H](C)C(=O)N1CCC[C@H]1C(=O)N[C@@H](C)C(=O)N[C@@H](CCCCNC(=O)COCCOCCNC(=O)COCCOCCNC(=O)CC[C@H](NC(=O)CCCCCCCCCCCCCCCCC(=O)O)C(=O)O)C(=O)N1CCC[C@H]1C(=O)N[C@@H](CCC(=O)O)C(=O)N[C@@H](CCC(=O)O)C(=O)N[C@@H](CC(=O)O)C(=O)N[C@@H](C)C(=O)N[C@@H](CO)C(=O)N[C@@H](CCC(=O)O)C(=O)N[C@@H](CCC(=O)O)C(=O)N[C@@H](CCC(=O)O)C(=O)N[C@@H](CC(C)C)C(=O)N[C@@H](CCC(N)=O)C(=O)N[C@@H](CCCNC(=N)N)C(=O)N[C@@H](Cc1ccc(O)cc1)C(=O)N[C@@H](Cc1ccc(O)cc1)C(=O)N[C@H](C(=O)N[C@@H](CO)C(=O)N[C@@H](CC(C)C)C(=O)N[C@@H](CCCNC(=N)N)C(=O)N[C@@H](Cc1c[nH]cn1)C(=O)N[C@@H](Cc1ccc(O)cc1)C(=O)N[C@@H](Cc1ccc(O)cc1)C(=O)N[C@@H](CC(N)=O)C(=O)N[C@@H](Cc1c[nH]c2ccccc12)C(=O)N[C@@H](CC(C)C)C(=O)N[C@H](C(=O)N[C@@H](CCCNC(=N)N)C(=O)N[C@@H](CCC(N)=O)C(=O)N[C@@H](CCCNC(=N)N)C(=O)N[C@@H](Cc1ccc(O)cc1)C(N)=O)[C@@H](C)O)C(C)C [Compound 103, N{alpha-4}-(3-methylbutanoyl)-N{epsilon-7}-[2-(2-{2-[2-(2-{2-[(4S)-4-carboxy-4-(17-carboxyheptadecanamido)butanamido]ethoxy}ethoxy)acetamido]ethoxy}ethoxy)acetamido]-[4A,6A,7K,9E,14E,18Q,22V,28Y,30W,31L]hPYY (4-36)]	67	–
